Measurements from PubChem BioAssay (NCI).
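48-hour exposure; five concentrations; linearly interpolated endpoints. TGI marks complete inhibition of growth.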

Columns and labels:
Assay in all cases: growth of human tumour cells (NCI), 48 h
K-562 leukemia = system: K-562 leukemia
OVCAR-5 ovarian = system: OVCAR-5 ovarian
SR leukemia = system: SR leukemia
RPMI-8226 leukemia = system: RPMI-8226 leukemia
SN12C renal = system: SN12C renal
HL-60(TB) leukemia = system: HL-60(TB) leukemia
MDA-MB-435 = system: MDA-MB-435
COLO 205 colon = system: COLO 205 colon
SK-MEL-28 melanoma = system: SK-MEL-28 melanoma
SNB-19 CNS = system: SNB-19 CNS
HCT-15 colon = system: HCT-15 colon
NCI-H226 lung = system: NCI-H226 lung
SW-620 colon = system: SW-620 colon
A498 renal = system: A498 renal
SK-MEL-2 melanoma = system: SK-MEL-2 melanoma
NCI-H23 lung = system: NCI-H23 lung
786-0 renal = system: 786-0 renal
SF-295 CNS = system: SF-295 CNS
IGROV1 ovarian = system: IGROV1 ovarian
OVCAR-3 ovarian = system: OVCAR-3 ovarian
MCF7 breast = system: MCF7 breast
MOLT-4 leukemia = system: MOLT-4 leukemia
UACC-257 melanoma = system: UACC-257 melanoma
UO-31 renal = system: UO-31 renal
DU-145 prostate = system: DU-145 prostate
EKVX NSCLC = system: EKVX NSCLC
HS 578T breast = system: HS 578T breast
HOP-92 NSCLC = system: HOP-92 NSCLC
HOP-62 NSCLC = system: HOP-62 NSCLC
LOX IMVI melanoma = system: LOX IMVI melanoma
HCT-116 colon = system: HCT-116 colon
SK-OV-3 ovarian = system: SK-OV-3 ovarian
MDA-N = system: MDA-N
U251 CNS = system: U251 CNS
SF-539 CNS = system: SF-539 CNS
A549 NSCLC = system: A549 NSCLC
NCI/ADR-RES ovarian = system: NCI/ADR-RES ovarian
HT29 colon = system: HT29 colon
SF-268 CNS = system: SF-268 CNS
OVCAR-4 ovarian = system: OVCAR-4 ovarian
MALME-3M melanoma = system: MALME-3M melanoma
M14 melanoma = system: M14 melanoma
SNB-75 CNS = system: SNB-75 CNS
CAKI-1 renal = system: CAKI-1 renal
BT-549 breast = system: BT-549 breast
OVCAR-8 ovarian = system: OVCAR-8 ovarian
UACC-62 melanoma = system: UACC-62 melanoma
SK-MEL-5 melanoma = system: SK-MEL-5 melanoma
PC-3 prostate = system: PC-3 prostate
NCI-H460 lung = system: NCI-H460 lung
KM12 colon = system: KM12 colon
CCRF-CEM leukemia = system: CCRF-CEM leukemia
MDA-MB-231 breast = system: MDA-MB-231 breast
HCC-2998 colon = system: HCC-2998 colon
RXF 393 renal = system: RXF 393 renal
T-47D breast = system: T-47D breast
TK-10 renal = system: TK-10 renal
ACHN renal = system: ACHN renal

Measured: TGI

CCOC(=O)c1cc(C2CCN(CC(C)CC)C2=S)c(-c2cc(C)no2)[nH]1 (stereo unspecified)
82.4 µM: UO-31 renal
not listed: TK-10 renal | ACHN renal
> 100 µM: all other assays above

CC(C)C1OC2(C)OC(=N)C1(C#N)C(C#N)(C#N)C2C (stereo unspecified)
34.7 µM: HOP-92 NSCLC
57.8 µM: MALME-3M melanoma
51.7 µM: 786-0 renal
30.7 µM: HCC-2998 colon
26.8 µM: SN12C renal
31.8 µM: MDA-MB-231 breast
67.7 µM: SK-MEL-2 melanoma
27.6 µM: COLO 205 colon
51.4 µM: CCRF-CEM leukemia
71.1 µM: OVCAR-5 ovarian
26.6 µM: SK-MEL-5 melanoma
78.2 µM: HCT-116 colon
41 µM: HT29 colon
30.5 µM: M14 melanoma
41.7 µM: MCF7 breast
66 µM: SF-539 CNS
41.5 µM: LOX IMVI melanoma
80.5 µM: SW-620 colon | UACC-62 melanoma
79.5 µM: OVCAR-8 ovarian
65.7 µM: U251 CNS
33.8 µM: NCI-H460 lung
29.8 µM: MDA-N
53.4 µM: EKVX NSCLC
22.8 µM: CAKI-1 renal
25.3 µM: HCT-15 colon
33.4 µM: OVCAR-3 ovarian
56.4 µM: SF-268 CNS
69.4 µM: HS 578T breast
37 µM: HL-60(TB) leukemia
33.5 µM: T-47D breast
not listed: SR leukemia | RPMI-8226 leukemia | SNB-19 CNS | IGROV1 ovarian | HOP-62 NSCLC | OVCAR-4 ovarian
> 100 µM: all other assays above

CN1CCN(c2cc3c(cc2F)c(=O)c(C(=O)O)cn3C2CC2)CC1CC#N (stereo unspecified)
not listed: SK-MEL-2 melanoma | HS 578T breast | HOP-92 NSCLC | M14 melanoma | PC-3 prostate
> 100 µM: all other assays above
